Laboratory results from patent publication US20070160554A1, “Acyl ribonucleosides and acyl deoxyribonucleosides, compositions of, and methods of making same” (COGNIS IP MANAGEMENT GMBH, priority 2003, published 2007).
Like-named read-outs stand apart in the source and are kept apart here.

Assays:
[1] = tested on: Melanocytes (B16 cell line); assay: Inhibition of melanin synthesis in B16 melanocytes (melanin by optical density at 475 nm, cellular proteins by Bradford); type: cell-based, mouse; conditions: for effect on the rate of released melanin / inhibition of melanin synthesis: B16 melanocytes, at concentrations not toxic to human fibroblasts; for Rate of Melanin / Rate of cellular proteins: B16, 3 days
Source text: Melanin is the pigment responsible for the colour of skin and hairs. Melanin synthesis takes place in specific organelles so called melanosomes in human melanocytes located in the basal layer of the human epidermis. This synthesis begins by oxidation of tyrosine to DOPA (dihydroxy-phenyl-alanine) by tyrosinase and then DOPA polymerises to melanin which is stored in melanosomes.
Melanocytes (B16 cell line: B16 is the name of the mouse melanoma cells used in this test.) were inoculated in standard cell culture medium of foetal calf serum (FCS). […] Uridine palmitate and ulidine stearate were added to the culture medium starting from a stock solution at 1% (w/v) in DMSO. After an incubation of 3 days, the number of viable cells was determined by the evaluation of the levels of cellularproteins (Bradford's method) and the level of synthesized melanin was measured by recording the optical density at 475 nm of cell's homogenate. The results are expressed in table 4.

[2] = tested on: human fibroblasts; conditions: for Proteins (level of cellular proteins) / LD50: 3 days; for LD50: human
Experimental: In a first experiment, human fibroblasts were inoculated in a standard cell culture medium of foetal calf serum (or FCS). After an incubation of 1 day at 37° C. under an atmosphere of air, enriched to a carbon dioxide content of 5%, the growth medium was exchanged for a standard medium with a range of concentrations of uridine, uridine palmitate and uridine stearate.

[3] = tested on: human fibroblasts; assay: Non-toxicity on quiescent human fibroblasts (second experiment: DNA, ATP, proteins, GSH/proteins); type: cell-based; conditions: for ATP / DNA / GSH/proteins / Proteins: quiescent fibroblasts, 3 days; for modification of growth, energetic metabolism and protein metabolism of the fibroblasts: human fibroblasts in vitro
Experimental: Uridine palmitate and uridine stearate were added in the culture medium starting from a stock solution at 1% (w/v) in DMSO. After an incubation of 3 days the number of viable cells was determined by evaluation of the levels of cellular DNA (fluorescent probe), ATP, proteins (Bradford's method) and the rate of cellular GSH (GSH is glutathione) normalised to the level of cellular proteins.

Q: Which “effect on the rate of released melanin / inhibition of melanin synthesis” value [1] does the source give for O=c1ccn([C@@H]2O[C@H](CO)[C@@H](O)[C@H]2O)c(=O)[nH]1 [Uridine, uridine, reference compound] here?
A: The value was “no or only a very poor effect”.

Q: And the “Rate of Melanin” value ([1]; dose 0.03 % w/v)?
A: The value was 92 % against control.

Q: What about the “Rate of cellular proteins” value ([1]; dose 0.03 % w/v) of the same molecule?
A: The value was 94 % against control.

Q: And the “Rate of Melanin” value ([1]; dose 0.1 % w/v)?
A: The value was 92 % against control.

Q: What about the “Rate of cellular proteins” value ([1]; dose 0.1 % w/v) of the same molecule?
A: The value was 97 % against control.

Q: And the “Proteins (level of cellular proteins)” value ([2]; dose 0.03 % w/v)?
A: Its value is 104 %/control.

Q: And the “Proteins (level of cellular proteins)” value ([2]; dose 0.1 % w/v)?
A: Its value is 99 %/control.

Q: What about the ATP ([3]; dose 0,01 % w/v) of the same molecule?
A: The ATP was 100 %/control.

Q: What about the DNA ([3]; dose 0,01 % w/v) of the same molecule?
A: The DNA was 103 %/control.

Q: And the GSH/proteins ([3]; dose 0,01 % w/v)?
A: Its GSH/proteins is 107 %/control.

Q: And the Proteins ([3]; dose 0,01 % w/v)?
A: Its Proteins is 100 %/control.

Q: And the ATP ([3]; dose 0,03 % w/v)?
A: The ATP was 89 %/control.

Q: And the DNA ([3]; dose 0,03 % w/v)?
A: The DNA was 94 %/control.

Q: And the GSH/proteins ([3]; dose 0,03 % w/v)?
A: Its GSH/proteins is 102 %/control.

Q: And the Proteins ([3]; dose 0,03 % w/v)?
A: Its Proteins is 104 %/control.

Q: Which “effect on the rate of released melanin / inhibition of melanin synthesis” value [1] does the source give for CCCCCCCCCCCCCCCC(=O)O[C@@H]1[C@H](O)[C@@H](CO)O[C@H]1n1ccc(=O)[nH]c1=O [Mono-O-palmitoyl uridine, Mono-O-Palmitoyl Uridine] here?
A: The value was “strongly decreased the rate of released melanin”.

Q: What about the “Rate of Melanin” value ([1]; dose 0.001 % w/v) of the same molecule?
A: The value was 98 % against control.

Q: What about the “Rate of cellular proteins” value ([1]; dose 0.001 % w/v) of the same molecule?
A: The value was 100 % against control.

Q: And the “Rate of Melanin” value ([1]; dose 0.003 % w/v)?
A: The value was 69 % against control.

Q: What about the “Rate of cellular proteins” value ([1]; dose 0.003 % w/v) of the same molecule?
A: The value was 95 % against control.

Q: And the “Rate of Melanin” value ([1]; dose 0.01 % w/v)?
A: The value was 44 % against control.

Q: And the “Rate of cellular proteins” value ([1]; dose 0.01 % w/v)?
A: Its value is 110 % against control.

Q: And the “toxic effects on growing human fibroblasts cultured in vitro” value [2]?
A: Its value is “not shown any toxic effects”.

Q: What about the “Proteins (level of cellular proteins)” value ([2]; dose 0.003 % w/v) of the same molecule?
A: The value was 92 %/control.

Q: And the “Proteins (level of cellular proteins)” value ([2]; dose 0.01 % w/v)?
A: The value was 97 %/control.

Q: And the LD50 [2]?
A: Its LD50 is greater than 0.01% w/v.

Q: And the ATP ([3]; dose 0,001 % w/v)?
A: The ATP was 111 %/control.

Q: And the DNA ([3]; dose 0,001 % w/v)?
A: Its DNA is 92 %/control.

Q: And the GSH/proteins ([3]; dose 0,001 % w/v)?
A: Its GSH/proteins is 103 %/control.

Q: What about the Proteins ([3]; dose 0,001 % w/v) of the same molecule?
A: The Proteins was 98 %/control.

Q: What about the ATP ([3]; dose 0,003 % w/v) of the same molecule?
A: Its ATP is 86 %/control.

Q: What about the DNA ([3]; dose 0,003 % w/v) of the same molecule?
A: The DNA was 83 %/control.

Q: And the GSH/proteins ([3]; dose 0,003 % w/v)?
A: Its GSH/proteins is 108 %/control.

Q: And the Proteins ([3]; dose 0,003 % w/v)?
A: Its Proteins is 91 %/control.

Q: And the “modification of growth, energetic metabolism and protein metabolism of the fibroblasts” value [3]?
A: The value was “not modified the growth of the fibroblasts”.

Q: CCCC(=O)OC[C@H]1O[C@@H](n2ccc(=O)[nH]c2=O)[C@H](OC(=O)CCC)[C@@H]1OC(=O)CCC [Tri-O-Butyryl-Uridine, reference compound] was tested. Which “effect on the rate of released melanin / inhibition of melanin synthesis” value [1] did it give?
A: The value was “no or only a very poor effect”.

Q: And the “Rate of Melanin” value ([1]; dose 0.001 % w/v)?
A: The value was 106 % against control.

Q: And the “Rate of cellular proteins” value ([1]; dose 0.001 % w/v)?
A: The value was 100 % against control.

Q: What about the “Rate of Melanin” value ([1]; dose 0.003 % w/v) of the same molecule?
A: Its value is 106 % against control.

Q: And the “Rate of cellular proteins” value ([1]; dose 0.003 % w/v)?
A: Its value is 106 % against control.

Q: What about the “Rate of Melanin” value ([1]; dose 0.01 % w/v) of the same molecule?
A: The value was 105 % against control.

Q: And the “Rate of cellular proteins” value ([1]; dose 0.01 % w/v)?
A: Its value is 103 % against control.

Q: What does the source list for CCCCCCCCCCCCCCCCCC(=O)O[C@@H]1[C@H](O)[C@@H](CO)O[C@H]1n1ccc(=O)[nH]c1=O [Mono-O-stearoyl uridine, Mono-O-Stearoyl Uridine]?
A: effect on the rate of released melanin / inhibition of melanin synthesis [1]: strongly decreased the rate of released melanin; Rate of Melanin ([1]; dose 0.001 % w/v): 84 % against control; Rate of cellular proteins ([1]; dose 0.001 % w/v): 98 % against control; Rate of Melanin ([1]; dose 0.003 % w/v): 65 % against control; Rate of cellular proteins ([1]; dose 0.003 % w/v): 92 % against control; Rate of Melanin ([1]; dose 0.01 % w/v): 19 % against control; Rate of cellular proteins ([1]; dose 0.01 % w/v): 99 % against control; toxic effects on growing human fibroblasts cultured in vitro [2]: not shown any toxic effects; Proteins (level of cellular proteins) ([2]; dose 0.0005 % w/v): 90 %/control; Proteins (level of cellular proteins) ([2]; dose 0.0015 % w/v): 87 %/control; LD50 [2]: >0.01% w/v; ATP ([3]; dose 0,0015 % w/v): 91 %/control; DNA ([3]; dose 0,0015 % w/v): 94 %/control; GSH/proteins ([3]; dose 0,0015 % w/v): 98 %/control; Proteins ([3]; dose 0,0015 % w/v): 96 %/control; ATP ([3]; dose 0,005 % w/v): 92 %/control; DNA ([3]; dose 0,005 % w/v): 100 %/control; GSH/proteins ([3]; dose 0,005 % w/v): 135 %/control; Proteins ([3]; dose 0,005 % w/v): 95 %/control; modification of growth, energetic metabolism and protein metabolism of the fibroblasts [3]: not modified the growth of the fibroblasts
